Assay results from US20250288570A1, “TREATMENT OF NEUROLOGICAL DISORDERS” (Praxis Precision Medicines, Inc., priority 2022, published 2025).
Entries after “also recorded” stand apart in the source; their conditions may differ.

Tests used:
[1] = tested on: psychomotor seizures induced by 6-Hz electrical stimulation in CD-1 mice; assay: 6-Hz psychomotor seizure model (32 and 44 mA); assay type: in vivo, mouse
From the text: The 6-Hz test is a validated model of focal seizures for evaluating the anti-seizure potential of compounds. The 6-Hz seizure model can be performed at different stimulation intensities (32 or 44 mA), with the higher intensity (44 mA) used as a model of pharmacoresistant seizures. The positive control valproate is an approved anti-seizure medicine (ASM).
This study evaluated the efficacy of Compound 1 in attenuating psychomotor seizures induced by 6-Hz electrical stimulation at two different stimulation intensities (32 and 44 mA) in wild-type CD-1 mice. Psychomotor seizures are defined as the expression of at least one of the following behaviors: stun/immobility, forelimb clonus, straub tail or lateral head movement within 30 seconds of the stimulus. Protection is defined as a complete absence of the above behaviors within 30 seconds of the stimulus. Doses of Compound 1 used were 1 mg/kg, 3 mg/kg and 6 mg/kg administered orally. Valproate (600 mg/kg, administered intraperitoneally) was used as a positive control.
Male CD-1 mice (Charles River Laboratories; St. Constant, Quebec, CAN) were used for the study. Body weights at the time the experiment was carried out were 30-40 grams. The mice were group-housed in polycarbonate cages according to standard operating procedures. Animals were maintained on a 12-hour light/12 hour dark cycle, with all experimental activities occurring during the light phase. Food and water were available ad libitum. Mice acclimated to the test facility for at least 72 hours prior to testing.
Treatment was conducted using Compound 1 and 35% 2-hydroxypropyl-β-cyclodextrin (35% HPBCD, used as a negative control). Compound 1 stock solution was prepared fresh each experiment day in 35% HPBCD. […] Valproate was prepared fresh each experiment day in a vehicle of saline and dosed at 10 mL/kg.
Mice were administered vehicle (35% HPBCD), a single dose of Compound 1 (1 mg/kg, 3 mg/kg or 6 mg/kg) or valproate (600 mg/kg). Vehicle and Compound 1 were administered via oral gavage 30 minutes prior to […]. Valproate was administered as an intraperitoneal injection 60 minutes prior to the electrical stimulus.
Immediately prior to conducting the 6-Hz seizure test, a brief neurological assessment was performed. Each animal was visually assessed and received a score from 0 to 3 according to the following scoring system: neurological score of 0 corresponds to a normal status; neurological score of 1 corresponds to a modest decrease in spontaneous activity; neurological score of 2 corresponds to a marked decrease in spontaneous activity; and neurological score of 3 corresponds to loss of righting reflex.
Corneal electrodes moistened with saline (ECT unit 57800; Ugo Basile) were used to deliver the electrical stimulus (6-Hz, 0.2 millisecond pulse width, 3 seconds duration). The current delivered was either 32 mA or 44 mA. Immediately after the electrical stimulus, each mouse was monitored continuously for 30 seconds by an observer blinded to the treatment group. […] Mice were scored for the presence or absence of each seizure behavior, with a maximum total score of 4. […] At the end of the 6-Hz seizure test, plasma and brain samples were collected.
Mice were anesthetized with isoflurane, whole blood was collected via cardiac puncture and brains were harvested. […] Plasma and brain samples were stored at −80° C. and analyzed to determine levels of Compound 1. […]

[2] = Phase 1 clinical trial, single ascending dose (Part A), healthy volunteers; assay type: in vivo, human
From the text: This is a trial to assess the safety, tolerability, pharmacokinetics (PK), and pharmacodynamics (PD) of Compound 1 in healthy participants aged 18 to 55 years (inclusive). The trial is initially comprised of 2 parts, with 1 additional optional part, as follows: • Part A is randomized, double-blinded, and placebo-controlled. Part A is designed to investigate the safety, PK, and PD of single ascending doses of Compound 1. • Part B is randomized, double-blinded, and placebo-controlled. Part B is designed to investigate the safety, PK, and PD of multiple ascending doses (selected based on the results from Part A) of Compound 1. • Part C (optional) is a randomized, open-label, crossover design food effect evaluation to investigate the PK of a single dose (selected based on the results from Part A) of Compound 1 in the fasted and fed state.
Safety and tolerability assessments for Parts A, B, and C will include vital signs, 12-lead ECGs, physical examinations, clinical laboratory tests, and the C-SSRS (for Part B).
Healthy participants will be enrolled to receive single ascending oral doses of Compound 1 or placebo on Day 1. FIG. 14A is an illustration of the dosing scheme for Part A (single ascending dose) of the trial. Dose escalation in Part A will initially be conducted in up to a total of 4 planned cohorts (Cohorts A1 to A4). Following completion of Cohort A4, up to an additional 3 escalation cohorts may be added. […] Doses may be adjusted upward or downward based on safety, tolerability, and PK data from the preceding cohorts. Cohorts after A4 will be numbered sequentially (A5, A6, etc.). […]
Compound 1 will be administered to Cohort A1 participants at the starting dose of 5 mg. […] The safety and tolerability of each sentinel participant will be monitored until Day 2 and will be reviewed prior to dosing the remainder of participants in the cohort. […]
Cohorts will be dosed in an escalating order. […] If the current dose level is determined to be safe and tolerated by the SRC, the next dose cohort will be randomized to receive the selected dose of active Compound 1 or placebo. […]

human Nav1.6 = molecular target: T1, human Nav1.6 (Homo sapiens, UniProt Q9UQD0); assay: ATX-II activated late (persistent) INa block, automated patch clamp in HEK cells; assay type: cell-based
T1 construct: HEK-293 cell lines stably expressing human Nav1.6 (NP_055006) were used; expressed in transfected cells
T1 sequence (Q9UQD0 whole entry): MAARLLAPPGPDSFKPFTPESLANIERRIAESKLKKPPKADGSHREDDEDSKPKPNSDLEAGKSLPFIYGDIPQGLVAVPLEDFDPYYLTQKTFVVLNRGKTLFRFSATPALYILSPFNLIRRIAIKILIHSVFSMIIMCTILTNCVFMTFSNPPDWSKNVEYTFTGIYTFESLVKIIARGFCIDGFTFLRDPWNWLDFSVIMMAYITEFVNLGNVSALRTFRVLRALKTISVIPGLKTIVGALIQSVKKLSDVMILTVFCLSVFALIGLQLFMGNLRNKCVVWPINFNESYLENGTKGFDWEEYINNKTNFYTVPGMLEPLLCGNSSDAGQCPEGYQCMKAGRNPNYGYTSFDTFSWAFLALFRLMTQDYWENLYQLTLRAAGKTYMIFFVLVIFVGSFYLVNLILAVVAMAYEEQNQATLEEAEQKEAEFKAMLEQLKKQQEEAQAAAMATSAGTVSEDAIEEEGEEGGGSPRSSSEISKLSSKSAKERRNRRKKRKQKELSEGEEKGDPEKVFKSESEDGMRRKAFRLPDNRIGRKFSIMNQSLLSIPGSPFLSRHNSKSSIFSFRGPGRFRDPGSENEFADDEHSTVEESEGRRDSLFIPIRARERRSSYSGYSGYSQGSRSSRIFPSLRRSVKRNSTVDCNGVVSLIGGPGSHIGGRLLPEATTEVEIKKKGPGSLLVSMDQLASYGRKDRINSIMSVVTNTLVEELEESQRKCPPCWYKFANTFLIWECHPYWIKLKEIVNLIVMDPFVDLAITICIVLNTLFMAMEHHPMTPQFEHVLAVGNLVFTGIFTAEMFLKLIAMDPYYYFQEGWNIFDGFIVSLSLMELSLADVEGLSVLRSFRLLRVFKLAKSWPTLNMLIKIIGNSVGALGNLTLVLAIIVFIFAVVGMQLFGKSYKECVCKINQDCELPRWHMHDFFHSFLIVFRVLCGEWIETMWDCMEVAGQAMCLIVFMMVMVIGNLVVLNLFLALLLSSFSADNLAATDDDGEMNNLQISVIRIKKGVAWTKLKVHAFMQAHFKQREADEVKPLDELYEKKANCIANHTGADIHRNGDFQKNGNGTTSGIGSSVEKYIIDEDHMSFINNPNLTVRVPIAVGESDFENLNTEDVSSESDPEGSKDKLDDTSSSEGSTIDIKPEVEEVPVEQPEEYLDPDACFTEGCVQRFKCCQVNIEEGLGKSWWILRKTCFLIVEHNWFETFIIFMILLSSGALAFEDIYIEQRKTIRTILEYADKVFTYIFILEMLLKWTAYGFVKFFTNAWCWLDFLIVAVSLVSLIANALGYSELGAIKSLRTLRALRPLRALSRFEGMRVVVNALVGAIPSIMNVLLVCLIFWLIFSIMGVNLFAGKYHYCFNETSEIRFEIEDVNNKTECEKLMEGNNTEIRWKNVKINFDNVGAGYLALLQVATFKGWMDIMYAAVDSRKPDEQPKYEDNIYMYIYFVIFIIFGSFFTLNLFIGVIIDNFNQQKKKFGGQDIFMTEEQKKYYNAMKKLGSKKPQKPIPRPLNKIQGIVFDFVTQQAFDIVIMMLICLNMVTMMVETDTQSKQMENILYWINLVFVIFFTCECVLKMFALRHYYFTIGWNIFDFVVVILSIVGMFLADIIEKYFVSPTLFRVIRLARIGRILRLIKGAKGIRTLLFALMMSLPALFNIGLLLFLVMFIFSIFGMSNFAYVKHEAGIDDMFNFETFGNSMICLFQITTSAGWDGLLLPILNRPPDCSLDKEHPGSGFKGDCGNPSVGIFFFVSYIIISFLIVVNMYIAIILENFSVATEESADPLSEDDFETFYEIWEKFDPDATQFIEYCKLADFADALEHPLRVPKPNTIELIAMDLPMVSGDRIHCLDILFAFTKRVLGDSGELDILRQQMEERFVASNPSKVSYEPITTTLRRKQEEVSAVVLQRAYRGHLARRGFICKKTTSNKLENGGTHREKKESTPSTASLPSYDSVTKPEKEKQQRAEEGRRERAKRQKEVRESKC

CCOC(F)(F)c1nnc2ccc(-c3cnc(OCC(F)(F)F)c(F)c3)cn12 [Compound 1]
seizure score (in words) ([1]; 6 mg/kg p.o., 32 and 44 mA): significantly reduced the seizure score; also recorded: reduced seizure scores compared to vehicle
incidence of seizures (in words) ([1]; 6 mg/kg p.o., 32 mA): significantly reduced the incidence of seizures
neurological scores ([1]; any dose of Compound 1 (1, 3, 6 mg/kg)): all neurological scores were zero; also recorded: normal
safety and tolerability (in words) ([2]; healthy participants, single oral doses up to 45 mg): safe and generally well tolerated
most frequently reported TEAEs ([2]; single doses up to 45 mg): headache and fatigue
severity of treatment-emergent adverse events ([2]; single doses up to 45 mg): mild in severity
persistent INa preference to TB (human Nav1.6): 68 ×
potency for persistent INa relative to the other tested INa blocking agents (human Nav1.6): at least 550 ×
inhibition of and preference for persistent INa (in words) (human Nav1.6; hNav1.6): concentration dependent inhibition of late sodium current; also recorded: preference for persistent INa relative to peak INa for all assay conditions; also recorded: potently inhibited ATX-II-induced persistent INa; also recorded: potent inhibition of persistent INa; also recorded: potent inhibitor of persistent INa; also recorded: increased potency for persistent INa relative to standard NaV-targeting ASMs
Persistent INa Hill slope (human Nav1.6; hNav1.6 in HEK cells): (1.4)
